Paper PMC11361989, “A simple HPLC–MS/MS method for the determination of polymyxin B in human plasma and its application in the pharmacokinetic study in elderly patients infected with multidrug-resistant Gram-negative bacteria” (Frontiers in Pharmacology, 2024)

Experiment: Stability of working solutions of PB1 and PB2
Format: physicochemical
Protocol: All the above solutions were stored at −70°C.

For polymyxin B2 [PB2], which “Stability of working solutions” value is on record?
The value was “remained stable after storage at −70 °C for up to 7 days but not beyond 10 days”.
